Laboratory results from patent publication US7763602B2, “Pyrrole derivatives as antimycobacterial compounds” (priority 2002, dated 2010).
≈ marks a conversion by molar mass, not a printed value. Read-outs that look alike come from different tables or passages of the source.

How the values were obtained:
[1] = tested on: M. tuberculosis strain 103471; conditions: literature values; cited from earlier work
[2] = tested on: M. fortuitum; test: In vitro agar dilution assay (MIC), M. fortuitum; type: cell-based, Mycobacterium fortuitum; conditions: Mycolicibacterium fortuitum, read-out: MIC (μg/ml) M. fortuitum (n = 8)
[3] = tested on: M. tuberculosis clinical isolates, sensitive; test: microbe, parasite or virus in culture; type: cell-based, Mycobacterium tuberculosis; conditions: Mycobacterium tuberculosis
[4] = tested on: M. kansasii; test: In vitro agar dilution assay (MIC), M. kansasii; type: cell-based; conditions: Mycobacterium kansasii, read-out: MIC (μg/ml) M. kansasii (n = 2)
[5] = tested on: M. tuberculosis H37Rv ATCC 27294; test: Murine model of pulmonary tuberculosis, treated 14 days post-infection; conditions: Table IV; for Mean Log10 No. of CFU Lung / Mean Log10 No. of CFU Spleen: 5 day/week for 4 week, treated 14 days post-infection; for Mean Log10 no. of reduction Lung / Mean Log10 no. of reduction Spleen: difference from early controls
[6] = mice, oral route; cited from earlier work
[7] = tested on: M. tuberculosis H37Rv ATCC 27294; test: Murine model of pulmonary tuberculosis, treated 01 day post-infection; conditions: for Mean Log10 No. of CFU Lung / Mean Log10 No. of CFU Spleen: 5 day/week for 4 week; for Mean Log10 no. of reduction Lung / Mean Log10 no. of reduction Spleen / Mean Log10 No. of reduction Lung / Mean Log10 No. of reduction Spleen: difference from early controls
[8] = tested on: M. tuberculosis 27294; test: In vitro agar dilution assay (MIC), reference strain; type: cell-based, Mycobacterium tuberculosis; conditions: Mycobacterium tuberculosis, 27294, Table I, read-out: MIC (μg/ml) against M. tuberculosis-27294
[9] = tested on: M. tuberculosis H37Rv ATCC 27294; test: In vitro growth inhibition assay, BACTEC 460 TB system; type: cell-based, Mycobacterium tuberculosis; design: key: +: If ΔGI of test vial is less than that of the control vial the culture was sensitive to the test compound; conditions: final concentration 6.25 μg/ml
[10] = Table III, 12.5 mg/kg gavage, treatment from 1 day after infection
[11] = Table III, 25 mg/kg gavage, treatment from 1 day after infection
[12] = Table III, 50 mg/kg gavage, treatment from 1 day after infection
[13] = Table VI, 12.5 mg/kg, treated 01 day post-infection
[14] = Table VI, 25 mg/kg, treated 01 day post-infection
[15] = Table VI, 50 mg/kg, treated 01 day post-infection

SMILES: NNC(=O)c1ccncc1 [Isoniazid, reference compound]
- MIC value (μg/ml) against the M. tuberculosis strain 103471 [1]: 0.25 µg/mL (≈ 1.82 µM)
- MIC [2]: > 16 µg/mL
- MIC ([3]; read-out: MIC (μg/ml) M. tuberculosis Sensitive (n = 17)): 0.25 µg/mL (≈ 1.82 µM)
- MIC ([3]; read-out: MIC (μg/ml) against Clinical isolates Sensitive): 0.125 to 0.25 µg/mL (≈ 0.911 to 1.82 µM)
- MIC [4]: > 16 µg/mL
- Mean Log10 No. of CFU Lung ([5]; 12.5 mg/kg): 4.56 ± 0.24
- Mean Log10 No. of CFU Spleen ([5]; 12.5 mg/kg): 4.93 ± 0.42
- Mean Log10 no. of reduction Lung ([5]; 12.5 mg/kg): 1.03
- Mean Log10 no. of reduction Spleen ([5]; 12.5 mg/kg): 1.02
- Mean Log10 No. of CFU Lung ([5]; 25 mg/kg): 3.19 ± 0.6
- Mean Log10 No. of CFU Spleen ([5]; 25 mg/kg): 3.08 ± 0.44
- Mean Log10 no. of reduction Lung ([5]; 25 mg/kg): 2.4
- Mean Log10 no. of reduction Spleen ([5]; 25 mg/kg): 2.87
- Mean Log10 No. of CFU Lung ([5]; 50 mg/kg): 2.97 ± 0.46
- Mean Log10 No. of CFU Spleen ([5]; 50 mg/kg): 2.89 ± 0.27
- Mean Log10 no. of reduction Lung ([5]; 50 mg/kg): 2.62
- Mean Log10 no. of reduction Spleen ([5]; 50 mg/kg): 3.06
- Reported LD50 [6]: 139 mg/kg
- Mean Log10 No. of CFU Lung [7, 10]: 2.93
- Mean Log10 No. of CFU Spleen [7, 10]: 2.91
- Mean Log10 no. of reduction Lung ([7]; Table III, 12.5 mg/kg): 1.55
- Mean Log10 no. of reduction Spleen ([7]; Table III, 12.5 mg/kg): 1.72
- Mean Log10 No. of CFU Lung [7, 11]: 2.16
- Mean Log10 No. of CFU Spleen [7, 11]: 2.21
- Mean Log10 no. of reduction Lung ([7]; Table III, 25 mg/kg): 2.36
- Mean Log10 no. of reduction Spleen ([7]; Table III, 25 mg/kg): 2.27
- Mean Log10 No. of CFU Lung [7, 12]: 1.95
- Mean Log10 No. of CFU Spleen [7, 12]: 2.12
- Mean Log10 no. of reduction Lung ([7]; Table III, 50 mg/kg): 2.53
- Mean Log10 no. of reduction Spleen ([7]; Table III, 50 mg/kg): 2.51
- Mean Log10 No. of CFU Lung [7, 13]: 2.89 ± 0.27
- Mean Log10 No. of CFU Spleen [7, 13]: 2.91 ± 0.42
- Mean Log10 No. of reduction Lung ([7]; Table VI, 12.5 mg/kg): 1.68
- Mean Log10 No. of reduction Spleen ([7]; Table VI, 12.5 mg/kg): 1.78
- Mean Log10 No. of CFU Lung [7, 14]: 2.23 ± 0.33
- Mean Log10 No. of CFU Spleen [7, 14]: 2.21 ± 0.44
- Mean Log10 No. of reduction Lung ([7]; Table VI, 25 mg/kg): 2.34
- Mean Log10 No. of reduction Spleen ([7]; Table VI, 25 mg/kg): 2.48
- Mean Log10 No. of CFU Lung [7, 15]: 2.02 ± 0.31
- Mean Log10 No. of CFU Spleen [7, 15]: 2.07 ± 0.33
- Mean Log10 No. of reduction Lung ([7]; Table VI, 50 mg/kg): 2.55
- Mean Log10 No. of reduction Spleen ([7]; Table VI, 50 mg/kg): 2.62
- MIC [8]: 0.25 µg/mL (≈ 1.82 µM)
- Growth inhibition of M. tuberculosis 27294 [9]: +
